pEC50, pIC50: −log10 of the molar value. Read-outs that look alike come from different tables or passages of the source.
Experiments:
human D2R/β-arrestin [1] = biological target: T1, human D2R/β-arrestin (Homo sapiens (Human), UniProt P14416); experiment: β-Arrestin agonist assay (PathHunter); type: cell-based; conditions: CHO-K1 cell line expressing human D2R/β-arrestin
Outline: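 After compound incubation, detection reagent (Buffer:Emerald II:Galactor-Star, 19:5:1) added and luminescence or fluorescence read.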

human D2R/β-arrestin [2] = biological target: T1, human D2R/β-arrestin; conditions: read-out: β-arrestin Antagonist
human D2R/β-arrestin [3] = biological target: T1, human D2R/β-arrestin; experiment: Gi/cAMP agonist assay (Lance Ultra cAMP, Forskolin); type: cell-based; conditions: CHO-K1 cell line expressing human D2R/β-arrestin
Outline: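 Cells were plated and incubated before compounds were pin-transferred and incubated for 10 min at 37 °C. Forskolin was then added to stimulate cAMP. cAMP was detected by Lance Ultra TR-FRET using Eu-cAMP tracer and ULight-anti-cAMP antibody.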

human D2R/β-arrestin [4] = biological target: T1, human D2R/β-arrestin; conditions: read-out: cAMP Antagonist
Experimental: The detection reagents are then added, and the read-out is detected.
Cells were prepared for assays by growing cultures for up to 2 weeks (from about 6-20 passages). A vial of frozen cells was thawed in a water bath held at 37° C. The cells were then transferred into a 50 ml tube with 10 ml growth media. The vial was rinsed with growth media and the contents transferred to the 50 ml tube. The 50 ml tube was centrifuged at 1200 rpm for 5 minutes at room temperature. […] When the cells reached about 90% confluence (approximately 3 days between passages), the cells were passaged and used for either the agonist or antagonist assays as described below.
The cells were prepared for Gi/cAMP assays as described above. The assays were performed using a PE Lance Ultra cAMP kit (TRF0263). The cells were grown on 225 mm dishes, then washed once with 1×PBS (Cellgro) before digestion with 2.5 ml 1× Detachment reagent (DRX 92-0009) for about 2 minutes. PBS (20 ml) was then added to the plate, and the cells were transferred to a 50 ml centrifuge tube, and centrifuged at room temperature using BD Dynac III, at 1200 rpm for 5 minutes. […] The plates were then incubated at room temperature for about 30 minutes before addition of Eu-cAMP tracer solution (100, PerkinElmer) and then ULight-anti-cAMP solution (100) to each well.

[5] = CHO-K1 cell line expressing human D2R/β-arrestin, quinpirole used as agonist

T1 sequence (P14416 whole entry): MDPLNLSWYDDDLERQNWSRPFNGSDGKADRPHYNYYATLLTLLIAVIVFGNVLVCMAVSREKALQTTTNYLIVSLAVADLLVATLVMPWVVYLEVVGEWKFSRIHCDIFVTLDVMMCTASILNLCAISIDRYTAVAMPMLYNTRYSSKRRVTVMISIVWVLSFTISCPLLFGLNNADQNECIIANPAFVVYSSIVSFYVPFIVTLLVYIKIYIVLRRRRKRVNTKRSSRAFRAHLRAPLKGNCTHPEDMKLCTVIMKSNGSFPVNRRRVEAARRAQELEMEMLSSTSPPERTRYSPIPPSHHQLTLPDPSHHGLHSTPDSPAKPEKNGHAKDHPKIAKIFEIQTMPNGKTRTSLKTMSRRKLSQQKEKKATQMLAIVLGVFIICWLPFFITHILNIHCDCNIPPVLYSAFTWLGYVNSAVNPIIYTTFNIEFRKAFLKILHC

## O=C(NC(c1ccc(Cl)cc1)c1ccccn1)C1CCN(CCOc2cc(F)ccc2F)CC1 (single isomer, unassigned) [Compound 14a]
Human D2R/β-arrestin [1]
  pEC50: 6.00 to 7.00
Human D2R/β-arrestin [2]
  pIC50: 5.00 to 6.00
Human D2R/β-arrestin [3]
  pEC50: > 7.00
Human D2R/β-arrestin [4]
  pIC50: < 4.52

## COc1cccc(C(NC(=O)C2CCN(CCOc3ccccc3)CC2)c2ccccn2)c1 (stereo not drawn) [Compound 35a]
Human D2R/β-arrestin [1]
  pEC50: < 4.52
Human D2R/β-arrestin [2]
  pIC50: 4.52 to 5.00
Human D2R/β-arrestin [3]
  pEC50: 4.52 to 5.00
Human D2R/β-arrestin [4]
  pIC50: 4.52 to 5.00

## O=C(NC(c1ccc(F)cc1)c1ccc(Cl)cc1)C1CCN(CCOc2ccccc2)CC1 (single isomer, unassigned) [Compound 42a]
Human D2R/β-arrestin [1]
  pEC50: < 4.52
Human D2R/β-arrestin [2]
  pIC50: 6.00 to 7.00
Human D2R/β-arrestin [3]
  pEC50: 6.00 to 7.00
Human D2R/β-arrestin [4]
  pIC50: 6.00 to 7.00

## O=C(NC(c1cccc(OC(F)(F)F)c1)c1ccccn1)C1CCN(CCOc2ccccc2)CC1 (single isomer, unassigned) [Compound 118a, 1-(2-phenoxyethyl)-N-(pyridin-2-yl(3-(trifluoromethoxy)phenyl)methyl) piperidine-4-carboxamide]
Human D2R/β-arrestin [1]
  pEC50: < 4.52
Human D2R/β-arrestin [2]
  pIC50: 4.52 to 5.00
Human D2R/β-arrestin [3]
  pEC50: 4.52 to 5.00
Human D2R/β-arrestin [4]
  pIC50: < 4.52

## O=C(NC(c1cccc(F)c1)c1ccccn1)C1CCN(CCOc2ccccc2)CC1 (stereo not drawn) [Compound 27]
Human D2R/β-arrestin [1]
  pEC50: < 4.52
Human D2R/β-arrestin [2]
  pIC50: 5.00 to 6.00
Human D2R/β-arrestin [3]
  pEC50: 6.00 to 7.00
Human D2R/β-arrestin [4]
  pIC50: < 4.52

## O=C(NC(c1ccc(Cl)cc1)c1ccccn1)C1CCN(CCOc2cccc(F)c2)CC1 (single isomer, unassigned) [Compound 4b]
Human D2R/β-arrestin [1]
  pEC50: < 4.52
Human D2R/β-arrestin [2]
  pIC50: 5.00 to 6.00
Human D2R/β-arrestin [3]
  pEC50: < 4.52
Human D2R/β-arrestin [4]
  pIC50: 6.00 to 7.00

## O=C(NC(c1ccc(Cl)cc1)c1ccccn1)C1CCN(CCn2ccc(=O)cc2)CC1 (single isomer, unassigned) [Compound 11a]
Human D2R/β-arrestin [1]
  pEC50: < 4.52
Human D2R/β-arrestin [2]
  pIC50: 6.00 to 7.00
Human D2R/β-arrestin [3]
  pEC50: < 4.52
Human D2R/β-arrestin [4]
  pIC50: 5.00 to 6.00

## O=C(NC(c1ccc(Cl)cc1)c1ccccn1)C1CCN(CCOc2ccccc2F)CC1 (single isomer, unassigned) [Compound 3b]
Human D2R/β-arrestin [1]
  pEC50: < 4.52
Human D2R/β-arrestin [2]
  pIC50: 6.00 to 7.00
Human D2R/β-arrestin [3]
  pEC50: > 7.00
Human D2R/β-arrestin [4]
  pIC50: < 4.52

## O=C(NC(c1ccccc1)c1ccc(F)cc1)C1CCN(CCOc2ccccc2)CC1 (single isomer, unassigned) [Compound 45a]
Human D2R/β-arrestin [1]
  pEC50: < 4.52
Human D2R/β-arrestin [2]
  pIC50: 6.00 to 7.00
Human D2R/β-arrestin [3]
  pEC50: < 4.52
Human D2R/β-arrestin [4]
  pIC50: 6.00 to 7.00

## c1ccc(OCCN2CCC(CNC(c3ccc4c(c3)OCO4)c3ccccn3)CC2)cc1 (single isomer, unassigned) [Compound 102b, 1-(benzo[d][1,3]dioxol-5-yl)-N-((1-(2-phenoxyethyl)piperidin-4-yl)methyl)-1-(pyridin-2-yl)methanamine]
Human D2R/β-arrestin [1]
  pEC50: < 4.52
Human D2R/β-arrestin [2]; [5]
  pIC50: 5.00 to 6.00
Human D2R/β-arrestin [3]
  pEC50: 5.00 to 6.00
Human D2R/β-arrestin [4]; [5]
  pIC50: 5.00 to 6.00

## O=C(NC(c1ccc(Cl)cc1)c1ccccn1)C1CCN(CCOc2ccc3cccnc3c2)CC1 (single isomer, unassigned) [Compound 16b]
Human D2R/β-arrestin [1]
  pEC50: < 4.52
Human D2R/β-arrestin [2]
  pIC50: < 4.52
Human D2R/β-arrestin [3]
  pEC50: 5.00 to 6.00
Human D2R/β-arrestin [4]
  pIC50: < 4.52

## O=C(NC(c1ccc2c(c1)OCO2)c1ccccn1)C1CCN(CCOc2ccccc2F)CC1 (single isomer, unassigned) [Compound 95a, N-(benzo[d][1,3]dioxol-5-yl(pyridin-2-yl)methyl)-1-(2-(2-fluorophenoxy)ethyl) piperidine-4-carboxamide]
Human D2R/β-arrestin [1]
  pEC50: < 4.52
Human D2R/β-arrestin [2]
  pIC50: 6.00 to 7.00
Human D2R/β-arrestin [3]
  pEC50: < 4.52
Human D2R/β-arrestin [4]
  pIC50: 6.00 to 7.00

## O=C(NC(c1ccc(F)cc1)c1ccccn1)C1CCN(CCOc2ccccc2C(F)(F)F)CC1 (single isomer, unassigned) [Compound 52b]
Human D2R/β-arrestin [1]
  pEC50: < 4.52
Human D2R/β-arrestin [2]
  pIC50: 6.00 to 7.00
Human D2R/β-arrestin [3]
  pEC50: < 4.52
Human D2R/β-arrestin [4]
  pIC50: 6.00 to 7.00

## O=C(NC(c1ccc2c(c1)OC(F)(F)O2)c1ccccn1)C1CCN(CCOc2ccccc2)CC1 (single isomer, unassigned) [Compound 119a]
Human D2R/β-arrestin [1]
  pEC50: < 4.52
Human D2R/β-arrestin [2]
  pIC50: 5.00 to 6.00
Human D2R/β-arrestin [3]
  pEC50: < 4.52
Human D2R/β-arrestin [4]
  pIC50: 5.00 to 6.00

## O=C(NC(c1ccc(Cl)cc1)c1ccccc1F)C1CCN(CCOc2ccccc2F)CC1 (single isomer, unassigned) [Compound 96b, N-((4-chlorophenyl)(2-fluorophenyl)methyl)-1-(2-(2-fluorophenoxy)ethyl) piperidine-4-carboxamide]
Human D2R/β-arrestin [1]
  pEC50: < 4.52
Human D2R/β-arrestin [2]
  pIC50: 6.00 to 7.00
Human D2R/β-arrestin [3]
  pEC50: < 4.52
Human D2R/β-arrestin [4]
  pIC50: 6.00 to 7.00

## O=C(NC(c1ccc(Cl)cc1)c1ccccn1)C1CCN(CCOc2cc(F)ccc2F)CC1 (single isomer, unassigned) [Compound 14b]
Human D2R/β-arrestin [1]
  pEC50: < 4.52
Human D2R/β-arrestin [2]
  pIC50: 6.00 to 7.00
Human D2R/β-arrestin [3]
  pEC50: < 4.52
Human D2R/β-arrestin [4]
  pIC50: 5.00 to 6.00

## CC1(C(=O)NC(c2ccc(F)cc2)c2ccccn2)CCN(CCOc2ccccc2C(F)(F)F)CC1 (single isomer, unassigned) [Compound 70a, N-((4-fluorophenyl)(pyridin-2-yl)methyl)-4-methyl-1-(2-(2-(trifluoromethyl)phenoxy)ethyl) piperidine-4-carboxamide]
Human D2R/β-arrestin [1]
  pEC50: < 4.52
Human D2R/β-arrestin [2]
  pIC50: > 7.00
Human D2R/β-arrestin [3]
  pEC50: < 4.52
Human D2R/β-arrestin [4]
  pIC50: > 7.00

## O=C(NC(c1ccc(Cl)cc1)c1ccccn1)C1CCN(CCn2ccc(=O)cc2)CC1 (single isomer, unassigned) [Compound 11b]
Human D2R/β-arrestin [1]
  pEC50: < 4.52
Human D2R/β-arrestin [2]
  pIC50: < 4.52
Human D2R/β-arrestin [3]
  pEC50: < 4.52
Human D2R/β-arrestin [4]
  pIC50: < 4.52

## O=C(NC(c1ccc(Cl)cc1)c1ccccn1)C1CCN(CCOc2ccccc2F)CC1 (single isomer, unassigned) [Compound 3a]
Human D2R/β-arrestin [1]
  pEC50: < 4.52
Human D2R/β-arrestin [2]
  pIC50: 6.00 to 7.00
Human D2R/β-arrestin [3]
  pEC50: < 4.52
Human D2R/β-arrestin [4]
  pIC50: 6.00 to 7.00

## O=C(NC(c1ccc(Cl)cc1)c1ccccn1)C1CCN(CCOc2cccc(F)c2)CC1 (single isomer, unassigned) [Compound 4a]
Human D2R/β-arrestin [1]
  pEC50: 5.00 to 6.00
Human D2R/β-arrestin [2]
  pIC50: 5.00 to 6.00
Human D2R/β-arrestin [3]
  pEC50: 6.00 to 7.00
Human D2R/β-arrestin [4]
  pIC50: < 4.52

## O=C(NC(c1ccc(Cl)cc1)c1ccccc1F)C1CCN(CCOc2ccccc2)CC1 (single isomer, unassigned) [Compound 40a, N((4-chlorophenyl)(2-fluorophenyl)methyl)-1-(2-phenoxyethyl) piperidine-4-carboxamide]
Human D2R/β-arrestin [1]
  pEC50: < 4.52
Human D2R/β-arrestin [2]
  pIC50: 6.00 to 7.00
Human D2R/β-arrestin [3]
  pEC50: < 4.52
Human D2R/β-arrestin [4]
  pIC50: 6.00 to 7.00

## O=C(NC(c1ccc(F)cc1)c1ccccn1)C1CCN(CCOc2ccccc2Cl)CC1 (single isomer, unassigned) [Compound 53b, 1-(2-(2-chlorophenoxy)ethyl)-N-((4-fluorophenyl)(pyridin-2-yl)methyl) piperidine-4-carboxamide]
Human D2R/β-arrestin [1]
  pEC50: < 4.52
Human D2R/β-arrestin [2]
  pIC50: 6.00 to 7.00
Human D2R/β-arrestin [3]
  pEC50: < 4.52
Human D2R/β-arrestin [4]
  pIC50: 6.00 to 7.00

## O=C(NC(c1ccc(F)cc1)c1ccccn1)C1CCN(CCOc2ccccc2F)CC1 (single isomer, unassigned) [Compound 54b, 1-(2-(2-fluorophenoxy)ethyl)-N-((4-fluorophenyl)(pyridin-2-yl)methyl) piperidine-4-carboxamide]
Human D2R/β-arrestin [1]
  pEC50: < 4.52
Human D2R/β-arrestin [2]
  pIC50: 5.00 to 6.00
Human D2R/β-arrestin [3]
  pEC50: 6.00 to 7.00
Human D2R/β-arrestin [4]
  pIC50: < 4.52

## O=C(NC(c1ccc(F)cc1)c1ccccn1)C1CCN(CCOc2ccccc2Cl)CC1 (single isomer, unassigned) [Compound 53a, 1-(2-(2-chlorophenoxy)ethyl)-N-((4-fluorophenyl)(pyridin-2-yl)methyl) piperidine-4-carboxamide]
Human D2R/β-arrestin [1]
  pEC50: < 4.52
Human D2R/β-arrestin [2]
  pIC50: 6.00 to 7.00
Human D2R/β-arrestin [3]
  pEC50: < 4.52
Human D2R/β-arrestin [4]
  pIC50: 6.00 to 7.00
